{
  "source": "patent US20200009118A1",
  "about": "“COMPOSITIONS AND METHODS FOR THE TREATMENTOF NEURODEGENERATIVE AND OTHER DISEASES” (Glialogix, Inc., priority 2017, published 2020)",
  "key": {"activated astrocytes": {"test_system": "activated astrocytes", "assay": "Astrocyte activation (anti-GFAP area fraction) in spinal cord ventral horn of SOD1 mice", "type": "in vivo, mouse", "description": "The same test mice, spinal cord preparations and methods of analysis used in the neuroinflammatory study were identical to those used in the xCT quantitation study. Two neuroinflammatory cell populations were quantitated: (1) activated microglial cells using an antibody to the F4/80 antigen, and (2) activated astrocytes, using an antibody to the GFAP antigen. For each objective image, light parameters were optimized and kept consistent across all sections. Images that were captured at 20× were then imported into ImageJ freeware (NIH, Bethesda, Md.). A maximum entropy threshold algorithm was applied to all images in a completely blinded fashion to filter out all pixels that were not stained as DAB positive. 20× images were analyzed in a blinded fashion and mean area fraction occupied by stain was tabulated. Levels of neuroinflammation in the spinal cord were assessed by measuring the area fraction of the area of the ventral horn in the spinal cord occupied by activated astrocytes or microglia. […] The samples were then incubated with the primary antibody (Anti-GFAP) purchased from Abcam (Catalog # Ab10062; Cambridge, Mass.), diluted 1:1000 in PBS overnight at 4° C. Reaction products were developed using the Vector ImmPress system (Vector Labs, Burlingame, Calif.) using an anti-mouse IgG-conjugated horseradish peroxidase."}, "[1]": {"details": "2 g oral dose, people with ABCG2 genotype 421C/C; cited from earlier work"}, "xCT": {"molecular_target": "T1, xCT (Rattus norvegicus, UniProt A0A8I6AB70)", "T1 construct": "host or cells: primary rat astrocytes", "T1 sequence (A0A8I6AB70 1-502)": "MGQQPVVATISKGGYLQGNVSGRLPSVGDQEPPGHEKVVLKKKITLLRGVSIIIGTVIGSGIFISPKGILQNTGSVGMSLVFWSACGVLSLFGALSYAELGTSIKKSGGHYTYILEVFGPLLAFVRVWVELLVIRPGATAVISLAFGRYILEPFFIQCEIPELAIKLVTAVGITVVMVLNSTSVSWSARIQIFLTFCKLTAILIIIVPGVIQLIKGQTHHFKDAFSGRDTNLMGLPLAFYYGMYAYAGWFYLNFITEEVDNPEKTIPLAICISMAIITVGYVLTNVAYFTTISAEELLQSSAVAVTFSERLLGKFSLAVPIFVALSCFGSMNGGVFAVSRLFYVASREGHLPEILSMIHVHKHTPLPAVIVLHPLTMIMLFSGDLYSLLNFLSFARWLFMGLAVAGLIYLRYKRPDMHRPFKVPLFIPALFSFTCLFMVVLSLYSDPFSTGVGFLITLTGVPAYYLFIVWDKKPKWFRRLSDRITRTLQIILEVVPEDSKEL", "T1 sequence (Q794F9 whole entry partner)": "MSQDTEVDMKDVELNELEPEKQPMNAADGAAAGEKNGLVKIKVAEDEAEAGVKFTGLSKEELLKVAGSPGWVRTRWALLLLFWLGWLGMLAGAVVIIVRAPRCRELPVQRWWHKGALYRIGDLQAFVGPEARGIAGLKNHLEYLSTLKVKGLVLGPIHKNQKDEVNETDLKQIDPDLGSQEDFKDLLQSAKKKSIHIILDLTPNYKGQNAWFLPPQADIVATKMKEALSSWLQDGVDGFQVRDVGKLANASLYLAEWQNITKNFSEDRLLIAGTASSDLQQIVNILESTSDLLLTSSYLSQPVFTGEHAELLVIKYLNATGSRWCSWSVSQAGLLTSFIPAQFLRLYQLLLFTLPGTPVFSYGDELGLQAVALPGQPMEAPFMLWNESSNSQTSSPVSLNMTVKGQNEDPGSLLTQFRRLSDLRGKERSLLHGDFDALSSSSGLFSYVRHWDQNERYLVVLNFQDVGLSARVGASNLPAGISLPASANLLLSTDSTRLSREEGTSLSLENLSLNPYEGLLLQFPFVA", "assay": "Extracellular glutamate from primary astrocytes (Amplex Red Glutamic Acid/Glutamate Oxidase Assay)", "type": "cell-based", "details": "sulfasalazine 50 μM in minimal media after TNF-alpha 100 μg/ml", "description": "xCT is a cystine-glutamate exchange protein that imports extracellular cystine in exchange for exporting intracellular glutamate. xCT activity can be measured by measuring the level of the extracellular glutamate that is exported. For detection of extracellular glutamate, the Amplex Red Glutamic Acid/Glutamate Oxidase Assay Kit from Life Technologies (Catalog #A-1222, Grand Island, N.Y.) was used following the manufacturer's instructions. Fluorescence from the Amplex Red fluorophore is directly proportional to glutamate concentration and was detected on an Enspire plate reader (Perkin-Elmer (Model #2300, Santa Clara, Calif.) with excitation wavelength at 530 nm and detection wavelength at 590 nm according to the manufacturer's instructions.\nAstrocytes were grown in 24-well microtiter plates at a density of approximately 10,000 cells/well in a total volume of 400 μl of astrocyte media. Cells were incubated 18 hours in either astrocyte media plus 100 μM cystine (Catalog #C8755; Sigma-Aldrich) or astrocyte media plus 100 μM cystine plus TNF-alpha (100 μg/ml). After 18 hours, the media was removed and the adherent astrocytes washed twice with PBS and then 400 μL of minimal media was added to the cells. The minimal media was EBSS (catalog #E3024, Sigma-Aldrich) supplemented with 100 μM cystine and 10 mM D-glucose (catalog #G8769, Sigma-Aldrich).\nThe top 25 μL of the supernatant was then transferred to a 0.5 ml microfuge tube and the aliquots frozen at −80.\nFor the glutamate assay, samples of the media were thawed, pipetted up and down to ensure mixing and 20 μl added to 80 μl of the Amplex Red assay mix in a 96-well microtiter plate (catalog #M4436, Greiner, Frickenhausen, Germany). The reactions were covered in aluminum foil and allowed to proceed for 30 minutes at 37° C. and then fluorescence measured as described above.\nConcurrently with analysis of the astrocyte samples, a standard curve of the Amplex Red glutamate assay in the minimal media was prepared following the manufacturer's instructions and using known concentrations of glutamate: 0, 0.5, 1, 2 and 4 μM. Table 19 gives the numerical results of the standard curve assay and the results are depicted graphically in FIG. 17."}, "[2]": {"test_system": "activated microglial cells", "assay": "Microglial activation (anti-F4/80 area fraction) in spinal cord ventral horn of SOD1 mice", "type": "in vivo, mouse", "details": "Microglia", "description": "The same test mice, spinal cord preparations and methods of analysis used in the neuroinflammatory study were identical to those used in the xCT quantitation study. Two neuroinflammatory cell populations were quantitated: (1) activated microglial cells using an antibody to the F4/80 antigen, and (2) activated astrocytes, using an antibody to the GFAP antigen. For each objective image, light parameters were optimized and kept consistent across all sections. Images that were captured at 20× were then imported into ImageJ freeware (NIH, Bethesda, Md.). A maximum entropy threshold algorithm was applied to all images in a completely blinded fashion to filter out all pixels that were not stained as DAB positive. 20× images were analyzed in a blinded fashion and mean area fraction occupied by stain was tabulated. Levels of neuroinflammation in the spinal cord were assessed by measuring the area fraction of the area of the ventral horn in the spinal cord occupied by activated astrocytes or microglia. Area fraction was compared with respect to treatment using 1-way ANOVA analysis, with a p-value of 0.05 considered significant.\nFor quantitation of microglial activation, samples were pretreated with Pronase for 20 minutes at RT, followed by treatment with 3% H2O2 for 12 minutes at RT (25° C.). Goat serum was added to 2% and samples incubated for 20 minutes at RT. The samples were then incubated with the primary antibody (Anti-F4/80) purchased from Serotec (Catalog # MCA497R; Oxford, United Kingdom), diluted 1:250 in PBS overnight at 4° C. The secondary antibody (Biotin labeled […]; 1:250 dilution in PBS) was then added and the reaction incubated 1 hour at RT. Reaction products were developed using the Vector ABC system (Vector Labs, Burlingame, Calif.) using avidin-conjugated horseradish peroxidase (45 minutes at RT). Activated microglia were visualized by addition of the chromogenic substrate DAB (3,3′-diaminobenzidine) for 6 minutes at RT."}, "[3]": {"details": "Cervical, day 100, listed as Sulfasalazine formulation"}, "[4]": {"details": "Cervical, day 100, listed as sulfasalazine formulation"}, "[5]": {"details": "Lumbar, day 85, listed as Sulfasalazine formulation"}, "[6]": {"details": "Lumbar, day 85, listed as sulfasalazine formulation"}, "[7]": {"details": "Lumbar, day 100, listed as Sulfasalazine formulation"}, "[8]": {"details": "Lumbar, day 100, listed as sulfasalazine formulation"}},
  "data": [
    {"smiles": "O=C(O)c1cc(/N=N/c2ccc(S(=O)(=O)Nc3ccccn3)cc2)ccc1O", "note": "[Sulfasalazine, 2-hydroxy-5-[(E)-2-{4-[(pyridin-2-yl)sulfamoyl]phenyl}diazen-1-yl]benzoic acid]", "values": [
      {"measurement": "Decreased activation vs. vehicle treated SOD1 mice", "setting": "activated astrocytes; Cervical, day 85", "value": "No decrease"},
      {"measurement": "Decreased activation vs. vehicle treated SOD1 mice", "setting": "activated astrocytes; [3]", "value": "significantly lowered astrocyte activation"},
      {"measurement": "Decreased activation vs. vehicle treated SOD1 mice", "setting": "activated astrocytes; [4]", "value": "Strong decrease (p < 0.01)"},
      {"measurement": "Decreased activation vs. vehicle treated SOD1 mice", "setting": "activated astrocytes; Combined, day 85", "value": "Decrease (p < 0.05)"},
      {"measurement": "Decreased activation vs. vehicle treated SOD1 mice", "setting": "activated astrocytes; Combined, day 100", "value": "Trend"},
      {"measurement": "Decreased activation vs. vehicle treated SOD1 mice", "setting": "activated astrocytes; [5]", "value": "significantly lowered astrocyte activation"},
      {"measurement": "Decreased activation vs. vehicle treated SOD1 mice", "setting": "activated astrocytes; [6]", "value": "Decrease (p < 0.05)"},
      {"measurement": "Decreased activation vs. vehicle treated SOD1 mice", "setting": "activated astrocytes; [7]", "value": "did not affect astrocyte activation"},
      {"measurement": "Decreased activation vs. vehicle treated SOD1 mice", "setting": "activated astrocytes; [8]", "value": "No decrease"},
      {"measurement": "Decreased activation vs. vehicle treated SOD1 mice", "setting": "activated astrocytes; Thoracic, day 85", "value": "Trend"},
      {"measurement": "Decreased activation vs. vehicle treated SOD1 mice", "setting": "activated astrocytes; Thoracic, day 100", "value": "No decrease"},
      {"measurement": "time plasma levels above 10 μg/ml were maintained", "setting": "[1]", "value": "approximately 7 hours"},
      {"measurement": "Calculated glutamate levels", "setting": "xCT; 30 minutes", "value": 0.25, "unit": "µM"},
      {"measurement": "Fluorescence units", "setting": "xCT; 30 minutes", "value": 4467},
      {"measurement": "Calculated glutamate levels", "setting": "xCT; 120 minutes", "value": 0.17, "unit": "µM"},
      {"measurement": "Fluorescence units", "setting": "xCT; 120 minutes", "value": 4199},
      {"measurement": "Calculated glutamate levels", "setting": "xCT; 240 minutes", "value": 0.27, "unit": "µM"},
      {"measurement": "Fluorescence units", "setting": "xCT; 240 minutes", "value": 4525},
      {"measurement": "Decreased activation vs. vehicle treated SOD1 mice", "setting": "[2]; Cervical, day 85, listed as Sulfasalazine formulation", "value": "significantly decreased microglial activation"},
      {"measurement": "Decreased activation vs. vehicle treated SOD1 mice", "setting": "[2]; Cervical, day 85, listed as sulfasalazine formulation", "value": "Strong decrease (p < 0.01)"},
      {"measurement": "Decreased activation vs. vehicle treated SOD1 mice", "setting": "[2]; [3]", "value": "trend towards decreased microglial activation"},
      {"measurement": "Decreased activation vs. vehicle treated SOD1 mice", "setting": "[2]; [4]", "value": "Trend"},
      {"measurement": "Decreased activation vs. vehicle treated SOD1 mice", "setting": "[2]; Combined, day 85", "value": "Trend"},
      {"measurement": "Decreased activation vs. vehicle treated SOD1 mice", "setting": "[2]; Combined, day 100", "value": "No decrease"},
      {"measurement": "Decreased activation vs. vehicle treated SOD1 mice", "setting": "[2]; [5]", "value": "reduced microglial activation"},
      {"measurement": "Decreased activation vs. vehicle treated SOD1 mice", "setting": "[2]; [6]", "value": "Trend"},
      {"measurement": "Decreased activation vs. vehicle treated SOD1 mice", "setting": "[2]; [7]", "value": "did not affect such activation"},
      {"measurement": "Decreased activation vs. vehicle treated SOD1 mice", "setting": "[2]; [8]", "value": "No decrease"},
      {"measurement": "Decreased activation vs. vehicle treated SOD1 mice", "setting": "[2]; Thoracic, day 85", "value": "No decrease"},
      {"measurement": "Decreased activation vs. vehicle treated SOD1 mice", "setting": "[2]; Thoracic, day 100", "value": "No decrease"}
    ]}
  ]
}
